Reference: ChEMBL document CHEMBL1201862, “PubChem BioAssay data set” (2004)
The source made the active and inactive calls.

Key:
[1] = target: Glucose-6-phosphate 1-dehydrogenase (Homo sapiens, UniProt P11413); assay: human G6PD enzyme inhibitors, dose response, selectivity assay for P. falciparum G6PD inhibitor project, biochemical, fluorescence (AID 504792); assay type: functional
[2] = target: T1, DNA repair and recombination protein RAD54-like (Homo sapiens, UniProt Q92698); assay: inhibitors of human RAD54 branch migration, confirmation, biochemical, fluorescence, cherry-picked samples, dose series (AID 651657); assay type: functional
T1 sequence (Q92698 whole entry): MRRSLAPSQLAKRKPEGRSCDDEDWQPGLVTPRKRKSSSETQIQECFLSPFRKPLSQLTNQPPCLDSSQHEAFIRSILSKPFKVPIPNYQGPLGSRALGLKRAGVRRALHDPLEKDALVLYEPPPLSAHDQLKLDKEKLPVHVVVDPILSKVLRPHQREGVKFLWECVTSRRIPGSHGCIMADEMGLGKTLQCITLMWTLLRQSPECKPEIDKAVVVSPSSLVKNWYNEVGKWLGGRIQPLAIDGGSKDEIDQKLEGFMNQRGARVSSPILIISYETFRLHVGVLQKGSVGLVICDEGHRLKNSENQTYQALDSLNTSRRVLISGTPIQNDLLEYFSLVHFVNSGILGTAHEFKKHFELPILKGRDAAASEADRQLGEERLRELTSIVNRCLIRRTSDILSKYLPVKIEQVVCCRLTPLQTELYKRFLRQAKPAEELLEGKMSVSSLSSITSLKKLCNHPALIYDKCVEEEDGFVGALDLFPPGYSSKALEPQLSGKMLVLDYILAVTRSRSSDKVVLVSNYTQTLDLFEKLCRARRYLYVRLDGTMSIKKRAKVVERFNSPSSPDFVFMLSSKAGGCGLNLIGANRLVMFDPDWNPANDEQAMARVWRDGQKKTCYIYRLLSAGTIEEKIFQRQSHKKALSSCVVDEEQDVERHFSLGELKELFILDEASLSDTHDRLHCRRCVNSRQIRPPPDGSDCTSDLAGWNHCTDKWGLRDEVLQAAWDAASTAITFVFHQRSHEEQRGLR

[3] = ZM109 Env clade C HIV-1 fusion inhibitors, dose response, HeLa effector, CEM target cells, luciferase, cherry-pick (AID 652058); assay type: functional, cell-based
[4] = target: Nonstructural protein 1 (Influenza A virus, UniProt Q194T2); assay type: functional, Influenza A virus (A/California/07/2009(H1N1))
[5] = target: T2, Replicative DNA helicase DnaB (Mycobacterium tuberculosis, UniProt P9WMR3); assay: DnaB intein splicing inhibitors, dose response, biochemical, cell-free fluorescence (AID 449749); assay type: functional
T2 sequence (P9WMR3 whole entry): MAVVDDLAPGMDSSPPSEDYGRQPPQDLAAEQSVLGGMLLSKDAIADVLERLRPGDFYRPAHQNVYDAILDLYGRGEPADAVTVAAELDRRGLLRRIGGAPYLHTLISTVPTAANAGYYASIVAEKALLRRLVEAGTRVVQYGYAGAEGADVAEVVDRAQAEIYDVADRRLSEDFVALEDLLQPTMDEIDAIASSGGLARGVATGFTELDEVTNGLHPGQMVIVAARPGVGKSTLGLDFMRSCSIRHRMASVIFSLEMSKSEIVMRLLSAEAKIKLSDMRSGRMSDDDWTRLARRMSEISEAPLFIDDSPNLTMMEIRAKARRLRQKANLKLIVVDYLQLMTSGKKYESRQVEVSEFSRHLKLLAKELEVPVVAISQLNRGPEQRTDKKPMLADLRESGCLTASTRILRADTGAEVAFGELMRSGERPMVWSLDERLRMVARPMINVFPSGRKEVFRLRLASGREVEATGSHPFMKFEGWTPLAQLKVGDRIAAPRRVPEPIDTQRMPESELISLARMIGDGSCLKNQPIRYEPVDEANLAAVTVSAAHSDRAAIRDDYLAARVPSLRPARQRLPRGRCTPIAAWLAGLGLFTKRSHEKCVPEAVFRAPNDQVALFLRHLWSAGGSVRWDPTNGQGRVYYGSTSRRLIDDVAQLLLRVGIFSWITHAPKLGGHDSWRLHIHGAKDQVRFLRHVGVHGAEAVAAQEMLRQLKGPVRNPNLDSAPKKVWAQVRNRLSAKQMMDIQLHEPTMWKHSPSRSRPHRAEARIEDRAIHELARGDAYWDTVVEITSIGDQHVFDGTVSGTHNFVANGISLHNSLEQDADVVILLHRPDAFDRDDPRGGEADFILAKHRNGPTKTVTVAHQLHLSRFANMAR

[6] = target: T3, Protein RecA (Mycobacterium tuberculosis, UniProt P9WHJ3); assay: Fluorescence Cell-Free Homogeneous Dose Retest to Identify Inhibitors of RecA-Intein Splicing Activity. [Related pubchem assays (depositor defined):AID2097, AID2223, AID489010, AID492950]; assay type: functional
T3 sequence (P9WHJ3 whole entry): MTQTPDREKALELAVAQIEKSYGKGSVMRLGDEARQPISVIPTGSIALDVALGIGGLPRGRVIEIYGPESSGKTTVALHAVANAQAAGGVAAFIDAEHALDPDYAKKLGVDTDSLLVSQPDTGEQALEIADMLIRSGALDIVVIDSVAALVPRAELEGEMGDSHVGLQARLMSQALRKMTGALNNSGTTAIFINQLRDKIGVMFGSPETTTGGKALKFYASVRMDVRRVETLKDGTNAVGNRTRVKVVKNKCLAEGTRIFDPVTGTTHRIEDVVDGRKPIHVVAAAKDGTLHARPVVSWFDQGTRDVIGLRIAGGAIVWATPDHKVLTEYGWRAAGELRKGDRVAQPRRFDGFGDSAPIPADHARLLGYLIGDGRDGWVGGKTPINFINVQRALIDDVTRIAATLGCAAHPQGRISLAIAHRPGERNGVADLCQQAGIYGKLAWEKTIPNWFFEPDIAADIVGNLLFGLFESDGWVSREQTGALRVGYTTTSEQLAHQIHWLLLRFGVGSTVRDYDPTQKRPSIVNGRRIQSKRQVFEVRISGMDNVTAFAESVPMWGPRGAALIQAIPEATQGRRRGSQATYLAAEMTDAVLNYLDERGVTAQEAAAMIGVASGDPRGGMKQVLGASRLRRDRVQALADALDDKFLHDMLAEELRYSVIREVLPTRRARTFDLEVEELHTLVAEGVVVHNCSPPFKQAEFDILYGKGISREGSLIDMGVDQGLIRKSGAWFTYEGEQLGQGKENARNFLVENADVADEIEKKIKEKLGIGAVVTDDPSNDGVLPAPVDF

[7] = target: Large T antigen (Simian virus 40, UniProt P03070); assay type: functional, Betapolyomavirus macacae;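 also: Confirmatory-stage PubChem screen for compounds that inhibit SV40 T antigen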
[8] = target: T4, Zinc finger protein mex-5 (Caenorhabditis elegans, UniProt Q9XUB2); assay: MEX-5/TCR-2 RNA interaction inhibitors, dose response, biochemical, C. elegans, fluorescence polarization (AID 1960)
T4 sequence (Q9XUB2 whole entry): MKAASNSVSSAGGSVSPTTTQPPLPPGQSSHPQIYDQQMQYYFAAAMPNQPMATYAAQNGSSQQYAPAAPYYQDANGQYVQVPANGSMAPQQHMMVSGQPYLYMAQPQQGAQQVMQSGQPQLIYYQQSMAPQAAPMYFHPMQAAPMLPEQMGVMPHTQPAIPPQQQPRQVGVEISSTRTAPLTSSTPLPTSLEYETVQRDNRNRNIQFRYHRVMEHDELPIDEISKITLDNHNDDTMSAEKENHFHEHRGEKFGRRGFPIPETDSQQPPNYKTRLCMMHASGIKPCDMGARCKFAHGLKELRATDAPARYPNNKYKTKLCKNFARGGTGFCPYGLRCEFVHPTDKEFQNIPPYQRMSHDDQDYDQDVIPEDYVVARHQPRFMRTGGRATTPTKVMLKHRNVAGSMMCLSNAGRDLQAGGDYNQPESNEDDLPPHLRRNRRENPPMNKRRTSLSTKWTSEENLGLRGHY

[9] = target: T5, RNA-binding protein pos-1 (Caenorhabditis elegans, UniProt G5EF15); assay: inhibitors of POS-1/mex-3 RNA binding, dose response, biochemical, fluorescence polarization (AID 1964);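 also: purified POS-1 fused to maltose binding protein made in E. coli; potency of compounds blocking POS-1 binding to fluorescent RNA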
T5 sequence (G5EF15 whole entry): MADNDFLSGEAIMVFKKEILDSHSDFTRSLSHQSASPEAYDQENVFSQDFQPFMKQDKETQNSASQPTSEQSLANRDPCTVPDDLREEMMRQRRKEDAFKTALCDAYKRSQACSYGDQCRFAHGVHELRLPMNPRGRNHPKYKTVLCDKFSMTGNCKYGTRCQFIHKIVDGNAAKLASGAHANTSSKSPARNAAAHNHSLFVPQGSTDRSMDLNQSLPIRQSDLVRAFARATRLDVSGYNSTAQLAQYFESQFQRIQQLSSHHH

[10] = target: Genome polyprotein (dengue virus type 2, UniProt P29990); assay: Dengue-2 NS5 methyltransferase inhibitors, primary screen, biochemical, confirmation dose response (AID 588689); assay type: functional
Chain of Genome polyprotein (P29990 2492-3391 limits assumed): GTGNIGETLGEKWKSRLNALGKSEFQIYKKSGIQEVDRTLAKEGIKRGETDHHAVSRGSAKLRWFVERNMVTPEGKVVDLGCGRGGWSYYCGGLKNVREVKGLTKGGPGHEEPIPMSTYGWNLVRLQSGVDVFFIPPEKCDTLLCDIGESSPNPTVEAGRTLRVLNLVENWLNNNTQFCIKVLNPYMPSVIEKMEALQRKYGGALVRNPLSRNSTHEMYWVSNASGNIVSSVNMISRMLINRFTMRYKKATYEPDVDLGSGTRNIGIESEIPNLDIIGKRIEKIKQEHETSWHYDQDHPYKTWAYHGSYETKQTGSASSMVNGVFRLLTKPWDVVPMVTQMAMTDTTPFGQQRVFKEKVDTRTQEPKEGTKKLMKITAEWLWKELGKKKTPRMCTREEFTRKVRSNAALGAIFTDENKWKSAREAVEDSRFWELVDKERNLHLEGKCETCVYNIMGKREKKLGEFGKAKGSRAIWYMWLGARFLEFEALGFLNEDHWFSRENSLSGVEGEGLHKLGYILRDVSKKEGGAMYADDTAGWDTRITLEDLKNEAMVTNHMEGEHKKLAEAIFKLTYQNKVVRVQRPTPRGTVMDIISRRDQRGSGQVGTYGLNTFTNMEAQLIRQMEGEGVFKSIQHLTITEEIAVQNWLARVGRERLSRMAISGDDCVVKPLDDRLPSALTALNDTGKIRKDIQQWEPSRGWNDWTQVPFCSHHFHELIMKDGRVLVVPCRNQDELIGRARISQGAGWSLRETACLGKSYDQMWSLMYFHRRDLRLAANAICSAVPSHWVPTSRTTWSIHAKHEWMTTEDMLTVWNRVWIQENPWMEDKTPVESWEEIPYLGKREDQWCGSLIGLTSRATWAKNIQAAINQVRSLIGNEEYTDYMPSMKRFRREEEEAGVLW

[11] = target: T6, Fatty acid synthase (Homo sapiens, UniProt P49327); assay: FAS thioesterase domain inhibitors, dose response, biochemical, endpoint fluorescence intensity, uHTS hits (AID 624327); assay type: functional;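 also: fluorescence from hydrolysis of an O-methyl fluorescein acyl ester substrate by the enzyme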
T6 sequence (P49327 whole entry, the tested form may be a part): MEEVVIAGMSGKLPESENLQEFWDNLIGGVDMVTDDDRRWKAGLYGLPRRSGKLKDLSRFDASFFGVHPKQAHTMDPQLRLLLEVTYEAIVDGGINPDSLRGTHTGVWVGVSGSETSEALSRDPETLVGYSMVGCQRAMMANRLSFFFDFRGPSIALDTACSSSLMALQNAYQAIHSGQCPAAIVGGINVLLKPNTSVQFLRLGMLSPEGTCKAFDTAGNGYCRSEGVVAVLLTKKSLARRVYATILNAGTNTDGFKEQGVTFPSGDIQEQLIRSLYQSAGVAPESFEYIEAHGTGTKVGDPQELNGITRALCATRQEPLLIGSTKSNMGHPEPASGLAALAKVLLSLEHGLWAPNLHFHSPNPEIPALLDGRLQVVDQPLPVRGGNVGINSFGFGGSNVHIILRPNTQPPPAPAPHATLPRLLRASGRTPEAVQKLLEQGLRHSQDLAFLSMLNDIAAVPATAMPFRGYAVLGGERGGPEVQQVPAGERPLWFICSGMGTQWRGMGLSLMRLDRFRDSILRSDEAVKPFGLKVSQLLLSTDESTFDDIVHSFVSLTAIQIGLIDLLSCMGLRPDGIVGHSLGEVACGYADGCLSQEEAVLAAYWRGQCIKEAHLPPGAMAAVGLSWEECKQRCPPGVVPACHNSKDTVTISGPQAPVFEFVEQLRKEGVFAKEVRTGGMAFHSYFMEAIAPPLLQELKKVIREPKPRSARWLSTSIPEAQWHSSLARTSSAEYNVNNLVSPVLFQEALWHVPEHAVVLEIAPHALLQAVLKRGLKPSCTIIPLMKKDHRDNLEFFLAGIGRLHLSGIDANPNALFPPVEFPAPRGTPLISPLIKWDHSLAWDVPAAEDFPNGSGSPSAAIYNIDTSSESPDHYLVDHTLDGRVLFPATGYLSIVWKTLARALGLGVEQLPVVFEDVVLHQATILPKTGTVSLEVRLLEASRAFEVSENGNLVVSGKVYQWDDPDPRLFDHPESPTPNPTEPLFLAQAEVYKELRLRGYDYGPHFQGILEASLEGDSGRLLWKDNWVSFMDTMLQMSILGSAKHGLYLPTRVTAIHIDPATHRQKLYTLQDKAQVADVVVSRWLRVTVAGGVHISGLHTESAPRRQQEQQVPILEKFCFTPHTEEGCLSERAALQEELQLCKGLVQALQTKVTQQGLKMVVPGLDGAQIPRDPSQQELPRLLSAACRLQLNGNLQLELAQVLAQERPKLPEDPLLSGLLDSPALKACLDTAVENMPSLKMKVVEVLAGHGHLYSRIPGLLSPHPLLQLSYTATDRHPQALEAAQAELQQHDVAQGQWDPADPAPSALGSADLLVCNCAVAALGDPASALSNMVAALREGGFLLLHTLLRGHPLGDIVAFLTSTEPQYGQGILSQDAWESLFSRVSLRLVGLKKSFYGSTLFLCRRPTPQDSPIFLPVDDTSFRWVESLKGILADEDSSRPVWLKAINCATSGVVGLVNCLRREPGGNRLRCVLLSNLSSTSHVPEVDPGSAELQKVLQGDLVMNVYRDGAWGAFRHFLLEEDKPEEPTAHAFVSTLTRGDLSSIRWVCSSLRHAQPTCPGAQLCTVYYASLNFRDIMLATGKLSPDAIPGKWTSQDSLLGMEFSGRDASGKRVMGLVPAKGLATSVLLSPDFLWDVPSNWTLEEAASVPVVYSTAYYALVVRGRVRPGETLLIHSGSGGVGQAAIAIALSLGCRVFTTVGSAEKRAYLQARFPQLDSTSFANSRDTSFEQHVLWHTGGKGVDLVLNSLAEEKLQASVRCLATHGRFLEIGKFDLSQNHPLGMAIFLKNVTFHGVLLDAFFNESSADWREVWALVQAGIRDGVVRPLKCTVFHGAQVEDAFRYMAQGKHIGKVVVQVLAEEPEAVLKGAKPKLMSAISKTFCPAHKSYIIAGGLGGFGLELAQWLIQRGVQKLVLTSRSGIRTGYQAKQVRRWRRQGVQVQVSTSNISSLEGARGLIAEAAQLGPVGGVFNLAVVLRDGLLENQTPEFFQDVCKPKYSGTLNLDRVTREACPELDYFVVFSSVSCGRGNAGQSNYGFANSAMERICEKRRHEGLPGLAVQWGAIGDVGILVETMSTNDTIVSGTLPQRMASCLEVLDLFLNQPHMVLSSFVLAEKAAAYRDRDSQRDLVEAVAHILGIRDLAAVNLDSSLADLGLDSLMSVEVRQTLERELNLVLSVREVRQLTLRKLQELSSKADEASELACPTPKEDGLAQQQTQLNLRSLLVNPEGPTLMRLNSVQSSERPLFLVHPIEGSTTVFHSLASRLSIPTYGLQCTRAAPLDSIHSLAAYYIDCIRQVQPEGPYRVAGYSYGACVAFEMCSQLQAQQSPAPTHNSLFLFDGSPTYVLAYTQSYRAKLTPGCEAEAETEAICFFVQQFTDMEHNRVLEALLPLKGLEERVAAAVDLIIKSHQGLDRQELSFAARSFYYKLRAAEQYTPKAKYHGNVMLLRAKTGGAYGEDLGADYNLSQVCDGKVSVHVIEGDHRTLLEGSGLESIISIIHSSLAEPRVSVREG

[12] = target: Induced myeloid leukemia cell differentiation protein Mcl-1 (Homo sapiens, UniProt Q07820); assay type: functional
[13] = target: T6, Fatty acid synthase; assay: FAS thioesterase domain inhibitors, dose response, biochemical, kinetic fluorescence intensity (AID 624326); assay type: functional;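 also: rate of fluorescence rise from hydrolysis of a fluorogenic O-methyl fluorescein ester substrate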
[14] = target: T7, Calpain-2 catalytic subunit (Sus scrofa, UniProt P43367); assay: pig calpain II inhibitor potency, dose response, biochemical, fluorogenic peptide substrate (AID 1420); assay type: functional
T7 sequence (P43367 whole entry): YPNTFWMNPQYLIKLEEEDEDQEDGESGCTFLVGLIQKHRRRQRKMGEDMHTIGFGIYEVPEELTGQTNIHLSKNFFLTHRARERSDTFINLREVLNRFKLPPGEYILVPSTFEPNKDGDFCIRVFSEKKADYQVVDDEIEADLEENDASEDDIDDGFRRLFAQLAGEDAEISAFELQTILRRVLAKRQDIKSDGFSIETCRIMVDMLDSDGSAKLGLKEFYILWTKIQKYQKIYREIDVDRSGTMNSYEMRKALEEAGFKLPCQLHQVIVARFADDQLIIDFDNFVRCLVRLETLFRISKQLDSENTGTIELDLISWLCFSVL

[15] = Vero E6 cell cytotoxicity, dose response, cytotoxicity control for non-replicating M. tuberculosis project, secondary assay (AID 492998); assay type: functional, VeroE6; conditions: Vero C1008
[16] = cells; assay type: functional
[17] = tested on: Vero; assay: Vero cell cytotoxicity, cytotoxicity control for flavivirus capping enzyme inhibitors (AID 588742); assay type: functional; conditions: Chlorocebus sabaeus
[18] = target: T8, Type-1 angiotensin II receptor (Homo sapiens, UniProt P30556); assay: AT1 receptor antagonists, dose response, selectivity assay for APJ receptor antagonist project, cell-based, uHTS hits (AID 463214); assay type: functional;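 also: antagonist potency against angiotensin II stimulated AT1 response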
T8 sequence (P30556 whole entry): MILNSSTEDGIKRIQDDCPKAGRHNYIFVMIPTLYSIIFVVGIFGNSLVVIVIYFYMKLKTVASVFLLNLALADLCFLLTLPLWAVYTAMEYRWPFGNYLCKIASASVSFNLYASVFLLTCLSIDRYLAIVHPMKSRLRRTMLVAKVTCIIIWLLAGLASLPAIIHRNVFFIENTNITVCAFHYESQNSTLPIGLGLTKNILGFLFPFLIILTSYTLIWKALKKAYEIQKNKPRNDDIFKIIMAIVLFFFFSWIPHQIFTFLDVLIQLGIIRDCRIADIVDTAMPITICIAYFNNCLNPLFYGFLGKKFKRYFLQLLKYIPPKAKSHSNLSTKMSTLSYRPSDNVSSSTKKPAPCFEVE

[19] = target: Beta-galactosidase (Escherichia coli, UniProt Q8VNN2); assay: PubChem AID 485352; assay type: functional
Chain of Beta-galactosidase (Q8VNN2 whole entry): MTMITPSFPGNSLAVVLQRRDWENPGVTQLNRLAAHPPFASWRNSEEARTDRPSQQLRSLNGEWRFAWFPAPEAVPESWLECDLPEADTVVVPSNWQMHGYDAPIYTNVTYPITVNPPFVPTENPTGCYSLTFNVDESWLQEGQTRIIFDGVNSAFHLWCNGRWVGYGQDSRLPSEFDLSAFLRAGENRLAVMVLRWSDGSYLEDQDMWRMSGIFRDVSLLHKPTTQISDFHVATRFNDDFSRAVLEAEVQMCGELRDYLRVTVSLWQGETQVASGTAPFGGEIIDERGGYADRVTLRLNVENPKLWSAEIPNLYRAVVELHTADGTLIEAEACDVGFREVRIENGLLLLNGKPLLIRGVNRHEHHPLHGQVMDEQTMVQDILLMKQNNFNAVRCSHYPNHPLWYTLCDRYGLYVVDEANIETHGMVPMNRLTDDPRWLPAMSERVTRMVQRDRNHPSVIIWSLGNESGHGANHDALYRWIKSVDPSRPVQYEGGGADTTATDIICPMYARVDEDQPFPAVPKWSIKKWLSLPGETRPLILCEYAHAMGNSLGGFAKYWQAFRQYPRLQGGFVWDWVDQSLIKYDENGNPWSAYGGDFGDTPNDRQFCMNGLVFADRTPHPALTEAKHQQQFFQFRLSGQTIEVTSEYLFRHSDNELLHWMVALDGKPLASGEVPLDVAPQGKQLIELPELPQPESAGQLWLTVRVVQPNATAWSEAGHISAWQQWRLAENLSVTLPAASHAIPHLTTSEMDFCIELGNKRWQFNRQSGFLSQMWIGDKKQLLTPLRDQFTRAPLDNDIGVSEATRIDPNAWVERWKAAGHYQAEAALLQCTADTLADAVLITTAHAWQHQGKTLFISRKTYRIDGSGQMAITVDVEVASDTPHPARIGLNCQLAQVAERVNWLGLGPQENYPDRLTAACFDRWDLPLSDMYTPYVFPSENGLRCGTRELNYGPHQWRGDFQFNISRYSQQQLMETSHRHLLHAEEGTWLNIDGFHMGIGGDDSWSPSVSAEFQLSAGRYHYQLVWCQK

Chain of Glucose-6-phosphate 1-dehydrogenase (P11413 whole entry): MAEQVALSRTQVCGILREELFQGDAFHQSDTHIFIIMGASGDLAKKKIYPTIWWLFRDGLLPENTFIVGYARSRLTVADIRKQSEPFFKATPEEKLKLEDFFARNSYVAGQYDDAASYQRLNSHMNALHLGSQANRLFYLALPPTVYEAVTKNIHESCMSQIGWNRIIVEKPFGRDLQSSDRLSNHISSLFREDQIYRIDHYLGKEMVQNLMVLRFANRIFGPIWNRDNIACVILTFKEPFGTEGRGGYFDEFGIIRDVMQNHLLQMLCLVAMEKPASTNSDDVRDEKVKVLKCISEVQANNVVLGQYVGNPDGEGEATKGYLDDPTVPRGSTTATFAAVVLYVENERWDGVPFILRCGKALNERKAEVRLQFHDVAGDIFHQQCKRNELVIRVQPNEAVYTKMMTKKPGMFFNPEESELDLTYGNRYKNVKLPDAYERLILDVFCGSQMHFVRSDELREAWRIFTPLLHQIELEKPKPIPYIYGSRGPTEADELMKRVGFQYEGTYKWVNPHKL

For `COc1cc(N)c2ncccc2c1Cl`, the IC50 [1] was 69.4 µM (inactive).
With `CCOCCCN=C(S)Nc1ccc2nc(N3CCCC3)cc(C)c2c1` the AC50 [2] was 100 µM (inactive).
With `O=C(C[C@@H]1C[C@@H]2c3cc(NC(=O)C4CCOCC4)ccc3O[C@@H]2[C@H](CO)O1)NCCc1ccccc1` the AC50 [3] was 37.3 µM (active).
In the case of `CCN(CC)C(=O)c1ccc2c(c1)C1C(Cl)C(Sc3ccccc3[N+](=O)[O-])CC1C(C(=O)O)N2` (configuration not stated), the IC50 [4] is reported as 17.7 µM (active), the AC50 [5] is reported as 4.63 µM (active) and the EC50 [6] is reported as 17 µM (active). The IC50 [7] was 35.4 µM (active), the EC50 [8] was 15.4 µM (inconclusive) and the EC50 [9] was > 300 µM (inconclusive). The IC50 [10] was 59.1 µM (active).
With `Cc1c(C(=O)N(Cc2ccccc2Cl)C2CCS(=O)(=O)C2)oc2ccccc12` (configuration not stated) the IC50 [1] was 40.3 µM (inactive).
With `Cc1nnc(Sc2cc(NCCO)c([N+](=O)[O-])c3nonc23)s1` the IC50 [1] was > 80 µM (inactive), the IC50 [11] was 6.34 µM (active) and the IC50 [12] was 6.12 µM (active). For the same compound, the AC50 [5] was 19.8 µM (inconclusive), the EC50 [6] was 12.4 µM (active) and the IC50 [13] was 5.35 µM (active). For the same compound, the IC50 [14] was > 50 µM (not active).
For `Cc1ccc(C(=O)Nc2nnc(-c3ccncc3)o2)cc1`, the CC50 [15] was > 20 µM (active) and the IC50 [16] was 8.2 µM (active).
For `CCN1CCc2c(sc(NC(=O)c3ccc(C(=O)c4ccccc4)cc3)c2C(N)=O)C1`, the AC50 [2] was 36.6 µM (active).
In the case of `COc1ccc(OCc2nnc3n2N=C(c2ccccc2)C(CC(=O)O)S3)cc1` (configuration not stated), the IC50 [1] is reported as > 80 µM (inactive).
In the case of `O=C(CCNc1cccc(Cl)c1)c1ccco1`, the CC50 [15] is reported as 18.8 µM (active) and the IC50 [16] is reported as 18 µM (active).
With `CCOc1ccccc1N1CCN(C2=C(NS(=O)(=O)c3cccs3)C(=O)c3ccccc3C2=O)CC1` the CC50 [17] was > 40 µM (active).
With `CCN(CC)CCCNC(=O)C1CCN(c2ncnc3c2sc2cccc(F)c23)CC1` the AC50 [2] was 52 µM (active).
With `Cc1ccc(C(=O)CNc2cc(C)ccc2C)cc1` the IC50 [18] was 9.85 µM (active) and the EC50 [19] was > 40 µM (inactive).
For `Cc1cc(C)nc(NNS(=O)(=O)c2ccc(F)c(Cl)c2)n1`, the IC50 [18] was 23.9 µM (not active) and the EC50 [19] was > 40 µM (inactive).
In the case of `C=CCNC1=NN=C(c2cc(C)n(CC=C)c2C)CS1`, the CC50 [17] is reported as > 40 µM (active).
In the case of `COc1cc([N+](=O)[O-])ccc1-c1ccc(/C=C2\C(=O)ON=C2c2ccccc2)o1`, the CC50 [17] is reported as 22.1 µM (active).
